# Data published in patent US11998600B2, “Enhancing the therapeutic activity of an immune checkpoint inhibitor” (MaineHealth, priority 2015, dated 2024).
# Key:
# [1] = tested on: P38MAPK; experiment: Phosphorylated P38MAPK in CAM tissue lysates, Western blot; type: in vivo, chick; conditions: Image-J quantification, FIG. 6B
# Description: The chick chorioallantoic membrane (CAM) assays were carried out with some modifications (19). For all experiments CAMs of 10-day-old chick embryos obtained from Charles River (North Franklin, CT) were separated from the shell membrane. Filter discs either non-treated (inflammation assays) pretreated (angiogenesis assays) with cortisone acetate (3.0 mg/ml) containing RPMI only or FGF-2 (40 ng). CAMs were either non-treated or treated topically with Mab XL313, XL166 or a non-specific control antibody (10 μg/embryo every 24 h for three consecutive treatments). […] At the end of the incubation period the embryos were sacrificed and the CAM tissues were analyzed. Angiogenesis was quantified by counting the number of angiogenic branching blood vessels within the area of the filter disc. The angiogenic index was determined by subtracting the mean number of blood vessel branch points from untreated CAMs from each experimental condition. Eight to twelve embryos were used per condition and experiments were repeated at least three times.
# Whole cell and CAM tissue lysates were collected in RIPA buffer supplemented with 1× protease inhibitor and 1× phosphatase inhibitor and were run on polyacrylamide gels using denaturing conditions. […] Western blot bands were quantified using Image J software based on pixel intensity.
# [2] = tested on: P38MAPK; experiment: P38MAPK phosphorylation in HUVECs attached to collagen peptides, Western blot; type: cell-based, human; conditions: cells attached to immobilized peptide; FIG. 6D
# Description: (§1) Endothelial cells (HUVECs or HRMVECs) were incubated in serum free media with 1 mM MgCl2, 0.2 mM MnCl2 in the presence of a Src inhibitor, PP2, (10 μM) a P38MAPK inhibitor, SB202190 (10 μM) or vehicle only (DMSO) for 10 min at 37° C. Treated cells were then seeded on to immobilized P-1 and P-2 and lysates were collected at 15 min.
# Whole cell and CAM tissue lysates were collected in RIPA buffer supplemented with 1× protease inhibitor and 1× phosphatase inhibitor and were run on polyacrylamide gels using denaturing conditions. Prior to loading the gels, 6× sample buffer was added to each of the lysates (final concentration 1×) and boiled for five minutes. Twenty to 50 μg of total protein were loaded into each lane. For detection of proteins larger than 50 kD, 10% gels were used; for proteins smaller than 50 kD 15% gels were used. Gels were run at 60 volts (v) until the dye front passed through the stacking gel, and then the voltage was increased to 100V for the remainder of the separation. Precision Plus protein standards (Bio-Rad) were used to visualize migration. Protein was transferred to nitrocellulose membranes using a wet tank system and blocked for 1 h using 10% non-fat dried milk in tris-buffered saline with 0.01% Tween-20 (TBS-T). […] Western blot bands were quantified using Image J software based on pixel intensity. […]
# [3] = tested on: endothelial cells (HUVECs); experiment: Actin stress fiber formation in HUVECs attached to collagen peptides (F-actin stain); type: cell-based, human; conditions: FIG. 7G
# Description: CAMs examined for accumulation of granulation tissue were harvested, fixed in 4% PFA and paraffin embedded and sectioned (4 μm) and stained with Giemsa. CAM tissues analyzed via immunofluorescence were harvested, embedded with OCT, snap frozen and sectioned ([…]). Frozen sections were fixed in 50% methanol/50% acetone, air dried and blocked with 2.5% BSA for 1 h at 37° C. For expression of the XL313 and XL166 epitopes as well as monocyte/macrophages, FGF-2 stimulated CAM tissues were stained with Mabs XL313, XL166 (50 μg/ml) or KUL1 (1:250) and then incubated with Alexa-488 labeled secondary antibodies (1:2000 dilution). […] Using a similar strategy, sections of RGD peptide-treated CAM tissues were analyzed for phosphorylated-P38MAPK in angiogenic vessels by co-incubation of anti-phospho-P38MAPK (1:50) and anti-vWf (1:500) antibodies. […]
# (§2) Because both RGD containing peptides bind αvβ3 coupled with the differential effect of these peptides on angiogenesis and inflammation, it was determined whether the RGD peptides differentially altered αvβ3-mediated signaling. […] Therefore, the differential phosphorylation of these protein kinases following the early mechanical-mediated interactions with the RGD containing collagen peptides was assessed. […]
# [4] = tested on: β3-integrin; experiment: β3-integrin phosphorylation in endothelial cells attached to collagen peptides, Western blot; type: cell-based, human; conditions: HUVEC, absence of growth factors; FIG. 7C
# Description: as §1
# Whole cell and CAM tissue lysates were collected in RIPA buffer supplemented with 1× protease inhibitor and 1× phosphatase inhibitor and were run on polyacrylamide gels using denaturing conditions. Prior to loading the gels, 6× sample buffer was added to each of the lysates (final concentration 1×) and boiled for five minutes. Twenty to 50 μg of total protein were loaded into each lane. For detection of proteins larger than 50 kD, 10% gels were used; for proteins smaller than 50 kD 15% gels were used. […] Western blot bands were quantified using Image J software based on pixel intensity.
# as §2
sequence,measurement,setting,value
QGPRGDKGE [Mab P-2],increase in phosphorylation of P38MAPK as compared to controls,[1],4 fold
same,"phosphorylation of P38MAPK in HUVECs, P-2 as compared to P-1",[2],enhanced phosphorylation of P38MAPK
same,"actin stress fiber formation, P-2 as compared to P-1",[3],accelerated actin stress fiber formation
same,"increase of β3 phosphorylation, P-2 as compared to P-1",[4],over 3 fold
